Experimental data taken from patent publication US8288386B2, “Melanocortin receptor agonists” (LG Life Sciences Ltd., priority 2008, dated 2012).

These compounds were tested against T1, MC4R (Homo sapiens, UniProt P32245) (assay: MCR agonistic activity (luciferase assay / cAMP accumulation assay) in HEK MC4R-Luc cells). Details: agonistic activity to MC4R; ranges given; read-out: EC50 value in the range.
T1 construct: expressed in transfected cells; host or cells: HEK (Human Embryonic Kidney) permanent expression cell line HEK MC4R-Luc, with CRE-LUC reporter
T1 sequence (P32245 whole entry, species assumed): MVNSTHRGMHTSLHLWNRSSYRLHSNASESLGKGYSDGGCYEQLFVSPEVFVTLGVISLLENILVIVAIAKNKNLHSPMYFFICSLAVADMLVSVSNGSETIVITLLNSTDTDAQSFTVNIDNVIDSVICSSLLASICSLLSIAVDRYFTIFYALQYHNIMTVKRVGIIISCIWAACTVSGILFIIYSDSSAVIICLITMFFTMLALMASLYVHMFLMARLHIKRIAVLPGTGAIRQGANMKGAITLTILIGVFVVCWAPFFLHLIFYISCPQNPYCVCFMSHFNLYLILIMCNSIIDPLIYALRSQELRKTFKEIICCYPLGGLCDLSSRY
Assay type: cell-based
Experimental: Physiological activity of the compounds of the present invention was assessed by measuring agonistic activity as well as binding activity for melanocortin receptors (MCR) according to methods A and B explained as follows.
As one of the methods to measure MCR agonistic activity of the compound according to the present invention, the expression level of a marker gene (for example, luciferase) which increases proportionally according to the increase of cAMP content in the cell, was measured.
First, permanent expression HEK (Human Embryonic Kidney) cell lines (HEK MC1R-Luc, MC3R-Luc, MC4R-Luc or MC5R-Luc) expressing the MCR gene of each subtype together with luciferase gene (CRE-LUC) under the control of CRE (cAMP Response Element) were constructed. The above cell lines were incubated in an incubator with 6% CO2 atmosphere at 37° C. using selection medium, DMEM (Dulbecco's Modified Eagles Medium) containing 10% heat-inactivated fetal bovine serum (Gibco/BRL), 100 unit/ml, penicillin (Gibco/BRL), 100 unit/ml streptomycin (Gibco/BRL), and 200 μg/ml geneticin (G418) (Gibco/BRL). […] After allowing the treated cells to be at room temperature for 15 minutes, luminescence was measured for each well by using luminometer (Victor). The level of luminescence induced by the stepwise-diluted agonist was converted to relative % value to those by the treatment of 10 μM NDP-MSH. […]
As another method to measure MCR agonistic activity of the compound according to the present invention, an increase of cAMP amount in the cell was measured.
First, permanent expression HEK (Human Embryonic Kidney) cell lines (HEK MC1R-Luc, MC3R-Luc, MC4R-Luc or MC5R-Luc) expressing the MCR gene of each subtype were plated onto each well of 24-well culture plates for Luminometer (Costar) with a concentration of 2×10^5 cell in 1 ml culture medium for each well, and then incubated in an incubator with 6% CO2 atmosphere at 37° C. for 24 hours. […] Then, the cAMP amount in each cell was measured using Amersham cAMP assay Kit (TRK432). […]
An EC50 of 100 to 1000 nM was found for `CC(=O)N(C1CCC(F)(F)CC1)[C@H]1C[C@@H](C(=O)N2CCN(C)CC2)N(C(=O)[C@@H]2CN(C(C)(C)C)C[C@H]2c2ccc(Cl)cc2)C1` [Example 27, N-{(3S,5S)-1-{[(3S,4R)-1-tert-butyl-4-(4-chlorophenyl)pyrrolidin-3-yl]carbonyl}-5-[(4-methylpiperazin-1-yl)carbonyl]pyrrolidin-3-yl}-N-(4,4-difluorocyclohexyl)acetamide] in this work. An EC50 of 10 to 100 nM was found for `CC(C)C(=O)N(c1ccc(F)cc1F)[C@H]1C[C@@H](C(=O)N2CCN(C)CC2)N(C(=O)[C@@H]2CN(C(C)(C)C)C[C@H]2c2ccc(Cl)cc2)C1` [Example 79, N-{(3S,5S)-1-{[(3S,4R)-1-tert-butyl-4-(4-chlorophenyl)pyrrolidin-3-yl]carbonyl}-5-[(4-methylpiperazin-1-yl)carbonyl]pyrrolidin-3-yl}-N-(2,4-difluorophenyl)-2-methylpropanamide] in this work. An EC50 of 100 to 1000 nM was found for `CN1CCN(C(=O)[C@@H]2C[C@H](N(C(=O)c3ccco3)c3ccc(F)cc3F)CN2C(=O)[C@@H]2CN(C(C)(C)C)C[C@H]2c2ccc(F)cc2F)CC1` [Example 84, N-{(3S,5S)-1-{[(3S,4R)-1-tert-butyl-4-(2,4-difluorophenyl)pyrrolidin-3-yl]carbonyl}-5-[(4-methylpiperazin-1-yl)carbonyl]pyrrolidin-3-yl}-N-(2,4-difluorophenyl)-2-furamide] in this work.
